Assay results reported in US20240156960A1 (priority 2020, published 2024).
Where two headings read alike, the source gives them in different places.

Key:
[1] = target: SARS-CoV2 S; RBD (Severe acute respiratory syndrome coronavirus 2, UniProt P0DTC2); conditions: epitope S; cited from earlier work
[2] = tested on: SARS-CoV1; conditions: cited from earlier work
[3] = tested on: mouse IGF-1; assay: Serum levels of mouse IGF-1 by ELISA (hGH bioactivity); assay type: in vivo; conditions: CD-1 mice, day 127 after injection (Example 10)
[4] = Serum hG-CSF protein by ELISA after DOTAP liposomes, hG-CSF plasmid DNA and immuno-modulating agents; assay type: in vivo, CD-1 mice
[5] = Serum ALT/AST levels (toxicity) after liposome and DNA injection
[6] = tested on: coronavirus named in the cell (SARS-CoV2, SARS-CoV1), S protein; conditions: cited from earlier work
[7] = tested on: coronavirus named in the cell (SARS-CoV2, SARS-CoV1); conditions: cited from earlier work
[8] = tested on: SARS-CoV2; conditions: Protein + Epitope: S; literature source; cited from earlier work
[9] = tested on: SARS-CoV1; conditions: cited from earlier work; remark: listed apart in the source
[10] = tested on: SARS-CoV2; conditions: source Seth Zost et al., 2020; cited from earlier work
[11] = mouse, in vivo
[12] = tested on: SARS-CoV2; conditions: SARS-CoV2 listed as bound; cited from earlier work
[13] = tested on: SARS-CoV2; conditions: SARS-CoV2 listed as neutralised; cited from earlier work
[14] = Critical toxicity markers after dexamethasone pretreatment and IV DNA vector; conditions: pre-dosed IP 1 to 40 mg/kg
[15] = agent in liposomes pre-injected IP prior to cationic liposomes (Example 16 Part 3)
[16] = agent incorporated into cationic liposomes (900 nmol DOTAP SUV), 70 ug hG-CSF DNA, day 1
[17] = IP 2 hours prior to lipid and DNA injection (Example 20 Part 4)

Q: For C119, which “Binds to” value [1] is on record?
A: SARS-CoV2

Q: With C021 as the compound, how does the “Not Neutralising Vs” value [2] read?
A: SARS-CoV1,

Q: What about the “Binds to” value [1] of the same compound?
A: SARS-CoV2

Q: Which “bioactivity of cDNA-encoded hGH protein (increase of endogenous mouse IGF-1)” value [3] does the source give for hGH here?
A: fully bioactive

Q: What does the source list for C018?
A: Not Neutralising Vs [2]: SARS-CoV1,; Binds to [1]: SARS-CoV2

Q: For “dexamethasone 21-palmitate [dexamethasone palmitate]”, which “peak levels of gene expression (serum hG-CSF)” value ([4]; 5 mole percent in DOTAP SUV, otherwise ineffective hG-CSF-DNA dose (Example 16 Part 6)) is on record?
A: further increase peak levels of gene expression

Q: What about the “gene expression (serum hG-CSF)” value [4, 15] of the same compound?
A: further increase gene expression

Q: What about the “gene expression (serum hG-CSF)” value [4, 16] of the same compound?
A: further increase gene expression

Q: What about the “toxicity (ALT levels)” value [5, 15] of the same compound?
A: further decrease toxicity

Q: What about the “toxicity (ALT levels)” value [5, 16] of the same compound?
A: further decrease toxicity

Q: What does the source list for 4A8?
A: Binds to [6]: SARS-CoV2; Neutralising Vs [7]: SARS-CoV2

Q: With C112 as the compound, how does the “Binds to” value [1] read?
A: SARS-CoV2

Q: Which “Not Neutralising Vs” value [2] does the source give for C107 here?
A: SARS-CoV1,

Q: And the “Binds to” value [1]?
A: SARS-CoV2

Q: Which “Binds to” value [8] does the source give for C005 here?
A: SARS-CoV2

Q: What about the “Not Neutralising Vs” value [9] of the same compound?
A: SARS-CoV1

Q: For CoV2-2196, which “Binds to” value [10] is on record?
A: SARS-CoV2

Q: For C029, which “Not Neutralising Vs” value [2] is on record?
A: SARS-CoV1,

Q: What about the “Binds to” value [1] of the same compound?
A: SARS-CoV2

Q: Which “Binds to” value [8] does the source give for C013 here?
A: SARS-CoV2

Q: What about the “Not Neutralising Vs” value [9] of the same compound?
A: SARS-CoV1

Q: What does the source list for C121?
A: Binds to [1]: SARS-CoV2; duration of fully neutralizing serum levels of each SARS-CoV2-specific mAb [11]: at least 134 days

Q: What does the source list for CB6?
A: Binds to [12]: SARS-CoV2; Neutralising Vs [13]: SARS-CoV2

Q: With C016 as the compound, how does the “Binds to” value [8] read?
A: SARS-CoV2

Q: What about the “Not Neutralising Vs” value [9] of the same compound?
A: SARS-CoV1,

Q: Which “Binds to” value [8] does the source give for B38 here?
A: SARS-CoV2

Q: Which “Binds to” value [10] does the source give for CoV2-2130 here?
A: SARS-CoV2

Q: With C003 as the compound, how does the “Binds to” value [8] read?
A: SARS-CoV2

Q: And the “Not Neutralising Vs” value [9]?
A: SARS-CoV1

Q: For C102, which “Binds to” value [1] is on record?
A: SARS-CoV2

Q: With BD23 as the compound, how does the “Binds to” value [8] read?
A: SARS-CoV2

Q: Which “Binds to” value [8] does the source give for C006 here?
A: SARS-CoV2

Q: What about the “Not Neutralising Vs” value [9] of the same compound?
A: SARS-CoV1

Q: Which results are given for N-Acetyl-De-O-Sulfated Heparin [NSH]?
A: gene expression (serum hG-CSF) [4, 17]: further increase gene expression; toxicity (serum ALT/AST) ([5]; IP 0.25 or 1 mg per mouse, 2 hours pre or 2 hours post lipid and DNA injection): reduce toxicity; toxicity (serum ALT/AST) [5, 17]: further reducing its toxicity

Q: With C[C@@H]1C[C@H]2[C@@H]3CCC4=CC(=O)C=C[C@]4(C)[C@@]3(F)[C@@H](O)C[C@]2(C)[C@@]1(O)C(=O)CO [dexamethasone] as the compound, how does the critical toxicity markers [14] read?
A: at or closely approximating background control levels

Q: For C002, which “Binds to” value [8] is on record?
A: SARS-CoV2

Q: What about the “Not Neutralising Vs” value [9] of the same compound?
A: SARS-CoV1
